# From patent US8808664B2, “Lipidated glycoprotein particles and methods of use” (Ramot at Tel-Aviv University Ltd., priority 2004, dated 2014)
# How the values were obtained:
# [1] = Efficiency of entrapment of drugs/bioactive agents in collagen disks or particles; type: physicochemical
# Protocol: Efficiency of entrapment of drugs/bioactive agents in the collagen disks or particles, and kinetics of drug efflux for small molecular weight drugs was determined utilizing absorption spectra (mostly in an ELISA plate reader), fluorescence emission spectra (mostly in a fluorescence plate reader), and HPLC. Half-life data was processed according to a theoretical framework previously developed for liposomes (Margalit et al., 1991), incorporated herein in its entirety) which yields the rate constant for drug efflux.
# [2] = tested on: HT29 colon adenocarcimona cell line; test: Treatment of multi-drug resistant cell lines, cell survival by MTT assay; type: cell-based, human; settings: 24-28 hours post-treatment
# Protocol: (§1) FIGS. 6A-6C show results for three cell lines, C26 (FIG. 6A), HT29 (FIG. 6B) and […], in terms of response to chemotherapeutic drugs encapsulated in collagen particles. The bars represent 60-64 repeats and the error bars represent the standard deviation. Three asterisks (***) indicate p<0.001.
# (§2) Cells were seeded onto 96 well plates, and the experiment was initiated at semi-confluency, usually 24 hours post seeding. For the test system, cells were given a selected dose of the drug of choice, which was entrapped in a collagen particle formulation (washed of excess free drug prior to use). The controls were given the same dose of free drug, and a dose of drug-free collagen particles at a dose similar to that of the test system. Cell survival was determined 24-28 hours post-treatment, using the MTT assay (Nutt, et al. 2000; and Larsen et al., 2000).
# [3] = tested on: C26 colon adenocarcimona cell line; test: as above; type: cell-based, mouse; settings: 24-28 hours post-treatment
# Protocol: as §1, §2
# [4] = tested on: glioma C6 line; test: as above; type: cell-based, rat; settings: 24-28 hours post-treatment
# Protocol: as §1, §2
# [5] = Collagen Disks (1-20 mm in a diameter)
# [6] = Collagen particles (0.5-10 μm in diameter)
Compound,"% Entrapment [1, 5] [%]","% Entrapment [1, 6] [%]","cell survival / response (MTT), FIGS. 6A-6C [2]","cell survival / response (MTT), FIGS. 6A-6C [3]","cell survival / response (MTT), FIGS. 6A-6C [4]"
"CO[C@@]12[C@H](COC(N)=O)C3=C(C(=O)C(C)=C(N)C3=O)N1C[C@@H]1N[C@@H]12 [MMC, Mitomycin C]",80.2 ± 1.0,67.3 ± 2.1,,,
"O=C(N[C@H](CO)[C@H](O)c1ccc([N+](=O)[O-])cc1)C(Cl)Cl [CAM, chloramphenicol]",89.5 ± 1.4,94.1 ± 0.8,,,
"COc1cccc2c1C(=O)c1c(O)c3c(c(O)c1C2=O)C[C@@](O)(C(=O)CO)C[C@@H]3O[C@H]1C[C@H](N)[C@H](O)[C@H](C)O1 [DOX, doxorubicin]",78.4 ± 2.4,71.9 ± 0.4,typical for the inherent form of MDR,typical for the inherent form of MDR,typical for the inherent form of MDR
Insulin: high molecular weight drug entrapped in collagen particles and disks,89.4 ± 2.3,91.2 ± 0.7,,,
